Legend:
[1] = test system: B. subtilis 168; assay: fitness (endpoint OD595 vs no drug) (fraction); higher = more growth
Outline: (§1)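 Background-subtracted growth curves were the basis for fitness, taken as the optical density at entry into stationary phase over the robust mean of no-drug control wells. A cap of 1 was applied. The curves came from OD595 readings every 30 min for 14 h at 37 °C, in 384-well plates seeded at OD595 0.01 with 30 µl, or 55 µl for S. pneumoniae.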

[2] = test system: S. pneumoniae D39V; assay: as above
Outline: as §1

[3] = test system: B. subtilis 168; assay: Bliss interaction score (quartile over a dose matrix) (fitness difference); higher = more antagonism (negative = synergy)
Outline: (§2)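 The Bliss score takes observed fitness and subtracts the expected fitness, calculated as a product of single-drug fitness values. Those single-drug values were inferred from the combination data. Fitness is OD595 at entry into stationary phase divided by the plate's robust no-drug mean, capped at 1, and the score is summarised by quartiles across technical, biological and donor/recipient replicates.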

[4] = test system: S. aureus DSM 20231; assay: as above
Outline: as §2

[5] = test system: S. aureus Newman; assay: as above
Outline: as §2

[6] = test system: S. pneumoniae D39V; assay: as above
Outline: as §2
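Throughout, for Bliss interaction score (quartile over a dose matrix): first quartile when negative (synergy) and third quartile when positive (antagonism).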

CCCCCCCCCC(=O)N[C@@H](Cc1c[nH]c2ccccc12)C(=O)N[C@H](CC(N)=O)C(=O)N[C@@H](CC(=O)O)C(=O)N[C@@H]1C(=O)NCC(=O)N[C@@H](CCCN)C(=O)N[C@@H](CC(=O)O)C(=O)N[C@H](C)C(=O)N[C@@H](CC(=O)O)C(=O)NCC(=O)N[C@H](CO)C(=O)N[C@@H]([C@H](C)CC(=O)O)C(=O)N[C@@H](CC(=O)c2ccccc2N)C(=O)O[C@@H]1C [Daptomycin] + CN(C)C(=O)C(CCN1CCC(O)(c2ccc(Cl)cc2)CC1)(c1ccccc1)c1ccccc1 [Loperamide]
fitness
Settings | partner 17.14 µg/mL | partner 20 µg/mL | partner 25 µg/mL | partner 34.28 µg/mL | partner 40 µg/mL | partner 80 µg/mL | partner 100 µg/mL
[1], first compound 0.125 µg/mL | – | – | 0.862 | – | – | – | 0.0281
[1], first compound 0.25 µg/mL | – | – | 0.802 | – | – | – | 0.0213
[1], first compound 0.5 µg/mL | – | – | 0.669 | – | – | – | 0.0107
[2], first compound 1 µg/mL | 0.888 | ≥ 1 | – | 0.877 | ≥ 1 | 0.225 | –
[2], first compound 2 µg/mL | 0.951 | ≥ 1 | – | 0.919 | ≥ 1 | 0.153 | –
[2], first compound 4 µg/mL | 0.917 | ≥ 1 | – | 0.918 | ≥ 1 | 0.196 | –

fitness, one replicate
Settings | first compound 1 µg/mL | first compound 2 µg/mL | first compound 4 µg/mL
[1], partner 25 µg/mL | 0.191 | – | –
[1], partner 50 µg/mL | 0.0409 | – | –
[1], partner 100 µg/mL | 0.0167 | – | –
[2], partner 68.57 µg/mL | 0.856 | 0.858 | 0.887

Settings | Bliss interaction score
[3] | 0.136
[4] | 0.133
[5] | 0.0375
[6] | 0.075

CCCCCCCCCC(=O)N[C@@H](Cc1c[nH]c2ccccc12)C(=O)N[C@H](CC(N)=O)C(=O)N[C@@H](CC(=O)O)C(=O)N[C@@H]1C(=O)NCC(=O)N[C@@H](CCCN)C(=O)N[C@@H](CC(=O)O)C(=O)N[C@H](C)C(=O)N[C@@H](CC(=O)O)C(=O)NCC(=O)N[C@H](CO)C(=O)N[C@@H]([C@H](C)CC(=O)O)C(=O)N[C@@H](CC(=O)c2ccccc2N)C(=O)O[C@@H]1C [Daptomycin] + CO[C@@H]1[C@@H](OC(N)=O)[C@@H](O)[C@H](Oc2ccc3c(O)c(NC(=O)c4ccc(O)c(CC=C(C)C)c4)c(=O)oc3c2C)OC1(C)C [Novobiocin]
fitness, [1]
Settings | first compound 0.125 µg/mL | first compound 0.25 µg/mL | first compound 0.5 µg/mL
partner 0.0125 µg/mL | 0.94 | 0.981 | 0.899
partner 0.025 µg/mL | 0.916 | 0.94 | 0.867
partner 0.05 µg/mL | 0.968 | 0.984 | 0.902

fitness, [1], one replicate
Settings | partner 0.05 µg/mL | partner 0.1 µg/mL | partner 0.125 µg/mL | partner 0.2 µg/mL | partner 0.25 µg/mL | partner 0.5 µg/mL
first compound 0.125 µg/mL | – | – | 0.958 | – | 0.954 | 0.649
first compound 0.25 µg/mL | – | 0.96 | ≥ 1 | 0.957 | ≥ 1 | 0.579
first compound 0.5 µg/mL | – | 0.94 | ≥ 1 | 0.936 | 0.965 | 0.288
first compound 1 µg/mL | 0.738 | 0.791 | – | 0.759 | – | –

Settings | Bliss interaction score
[3] | 0.0788
[4] | 0.0439
[5] | 0.0984
[6] | 0.0661
